Data published in patent US20080096853A1, “Edible Compositions Comprising A Primary Lipid, A Co-Lipid, A Lipohilic Physiologically Active Ingredient And Water, And Their Preparation” (priority 2004, published 2008).

Assays:
Assay type in all cases: physicochemical
[1] = USP24 dissolution test type II: solubility of β-carotene in bile extract solution; conditions: 900 ml bile extract solution in aqueous buffer, 37° C., stirring in USP24 for 60 min
Method: 6 mg of β-carotene and 2 g of lactic fatty acid ester+glycerol/propylene glycol reaction product (LFEGPG) were dissolved at 55° C. in 10 ml of ethanol. This solution was added dropwise to 200 ml of intensely agitated Tris buffer ([…]). After 15 minutes of stirring, the solution was cooled down and the pH adjusted to 4.0 with 1M HCl. The precipitate was then filtrated and LFEGPG lipid phase containing molecularly-dispersed β-carotene was used further in this experiment.
The precipitate was added to the USP24 vessel (dissolution test type II) loaded with 900 ml of bile extract solution in aqueous buffer at 37° C. As a control, 6 mg of free crystalline β-carotene was added to the same buffered bile solution in USP24.

[2] = Incorporation of β-carotene into LFEGPG in model systems (UV-Vis after centrifugation and hexane extraction)
Method: • (1) A. 1 g LFEGPG and 2.4 mg pure β-carotene were added to 100 ml water, followed by magnet stirring for 1 h at 50° C. 1.7 mg β-carotene/g dry LFEGPG were detected by UV-Vis spectrophotometry after centrifugation and extraction of β-carotene from the collected lipid phase by hexane. • B. 1 g LFEGPG and 2.4 mg pure β-carotene were melted together and added dropwise to 100 ml water, followed by magnet stirring for 20 min at 50° C. Ultra Turrax was applied to homogenize the sample, then the sample was magnet stirred for another 10 min at 50° C. […] Polymorphic or mesomorphic lipid phases containing molecularly dispersed β-carotene were derived (judged from appearance under microscope, however also a few free β-carotene crystals were detected, thus not completely molecularly dispersed). • (4) As the solubility of β-carotene in ethanol is limited, complete molecular dispersion of β-carotene was achieved by the use of non food-grade solvents such as chloroform. […] The lipid phase was investigated under the optical light microscope, and no β-carotene crystals could be detected. • (5) 0.2 g of LFEGPG and 2 mg β-carotene as well as 0.2 g a LFEGPG/Datem (diacetyl tartaric acid esters of mono- and diglycerides) mixture (93/7, by wt) and 2 mg β-carotene were dissolved in chloroform. […]

[3] = In situ incorporation of carotenoids from carrot juice into LFEGPG (absorbance at 448 nm); conditions: Silverson
Method: • 1) 1 g solid LFEGPG was added to 100 ml cold carrot juice (97% pure fresh carrot juice, Zonnatura B.V Zoetermeer, Netherlands). The mixture was warmed up to 50° C. and kept at this temperature for 30 min with magnetic stirring. Homogenization was performed with a Silverson homogenizer at ˜5500 rpm followed by another hydration step for 5 min at 50° C. • The LFEGPG phase was filtrated, collected and dissolved in hexane. The β-carotene content was determined spectrophotometrically (absorbance at 448 nm) to be 0.68 mg β-carotene/g dry lipid phase (corrected for a water content of the hydrated LFEGPG phase of 30%). • (2) 2 g LFEGPG were melted at 50° C. and added dropwise to 100 ml carrot juice kept at 50° C. Magnet stirring was performed for 1 hour at 50° C., then the solution was homogenized with a Silverson homogenizer (4500 rpm for 1 minute) and magnet stirred at 50° C. for another 1 hour. The LFEGPG phase was collected by filtration and dissolved in hexane. The β-carotene content was spectrophotometrically determined (absorbance at 448 nm) to be 1.5 mg β-carotene/g dry LFEGPG. […] Magnet stirring was performed for 20 min at 50° C., Silverson (4500 rpm, 1 min.), and magnet stirred at 50° C. for another 10 min at 50° C. The LFEGPG phase was collected by filtration and dissolved in hexane. The β-carotene content was spectrophotometrically determined (absorbance at 448 nm) to be 2.0 mg β-carotene/g dry LFEGPG.

- solubility of β-carotene in the bile solution, from the initial amount (6 mg) [1]: ~0%
- β-carotene detected in collected lipid phase ([2]; Example 6 (1) A: 1 g LFEGPG and 2.4 mg β-carotene added to 100 ml water, stirred 1 h at 50° C.): 1.7 mg β-carotene/g dry LFEGPG
- β-carotene recovered ([2]; Example 6 (1) B: 1 g LFEGPG and 2.4 mg β-carotene melted together, added dropwise to 100 ml water, Ultra Turrax): 2.2 mg
- β-carotene content of LFEGPG phase ([3]; Example 7 (1): 1 g solid LFEGPG in 100 ml cold carrot juice, 50° C. 30 min, corrected for 30% water content): 0.68 mg β-carotene/g dry lipid phase
- β-carotene content of LFEGPG phase ([3]; Example 7 (2): 2 g molten LFEGPG in 100 ml carrot juice, 1 hour stirring, another 1 hour, 50° C.): 1.5 mg β-carotene/g dry LFEGPG
- β-carotene content of LFEGPG phase ([3]; Example 7 (3): 1 g molten LFEGPG in 100 ml carrot juice, 20 min stirring, another 10 min, 50° C.): 2.0 mg β-carotene/g dry LFEGPG
SMILES: CC1=C(/C=C/C(C)=C/C=C/C(C)=C/C=C/C=C(C)/C=C/C=C(C)/C=C/C2=C(C)CCCC2(C)C)C(C)(C)CCC1 [β-carotene]
